{"source": "patent US20100178362A1", "about": "“CHROMIUM COMPLEXES FOR IMPROVEMENT OF MEMORY AND COGNITIVE FUNCTION” (priority 2007, published 2010)", "key": {"[1]": {"tested_on": "rats", "conditions": "cited from earlier work"}, "[2]": {"tested_on": "spatial learning and memory", "experiment": "Morris Water Maze test of spatial learning and memory", "format": "in vivo, male Wistar rats", "conditions": "for Improvement of spatial learning and/or memory: control animals and insulin-resistant animals; for Escape latency compared to controls: treatment for twelve weeks", "from_the_text": "8-week old, male, Wistar rats were divided into eight groups: four control groups (C) and four insulin-resistant groups (HFD). Insulin resistance was induced in by feeding the rats a high-fat diet (40% of calories as fat). The four groups in the control and insulin-resistant groups included: a no treatment group, a 14.3 mcg chromium picolinate group (CrPic), a 19.7 mcg chromium histidinate group (CrHis), and a 7.15 chromium picolinate and 9.85 chromium histidinate group (CrPic+CrHis). Four rats were assigned to each of the eight groups. Treatments were administered for twelve weeks.\nSpatial learning and memory were then tested using the Morris Water Maze test. Rats were placed in a circular water tank (120 cm diameter, 50 cm height) that was partially filled with water (25° C.). Milk powder was used to render the water opaque. Each rat was acclimated to the task with two days of free-swimming in the pool with no platform. […] Distal spatial cues were provided and kept constant throughout the testing, such that the rats could use the cues to find the platform. Rats were given 60 seconds to find the platform during each trial. The escape latency was defined as the time required for the rat to find a hidden platform.\nA probe trial was performed in which the hidden platform was removed from the pool, and the animal was allowed to swim for 60 seconds. Typically, a rat will swim in a quadrant of the pool where the platform was previously hidden."}, "[3]": {"tested_on": "memory function", "experiment": "California Verbal Learning Test in trial subjects with Mild Cognitive Impairment", "format": "in vivo, men and women", "method": "(§1) A randomized, double blind, placebo-controlled trial is conducted to evaluate the efficacy of chromium picolinate in producing enhancements of neuropsychological function in men and women with Mild Cognitive Impairment. Changes in indices of glucose metabolism and in salivary cortisol levels also are measured to gather exploratory information concerning potential mechanisms by which the intervention produces its effects. The subjects participate in a 12-week protocol with major assessments of neuropsychological and biological measures at pre-treatment baseline and during the final week of the intervention. In addition, a brief interim evaluation of neurocognitive function is conducted at 6 weeks to gather information that to assess trends and acute response. Mood, as a potential covariate of the neurobehavioral outcome measures, is also assessed. Overall diet and consumption of other supplements are assessed with diet diaries at different phases of the intervention. Compliance and adverse responses are monitored throughout the period of the intervention by means of weekly telephone contacts.\nCalifornia Verbal Learning Test: The California Verbal Learning Test (CVLT) is among the best designed of a number of list learning procedures used to assess memory consolidation ability. It provides data on learning rate or efficiency, interference effects, recall, and recognition memory. Reliability and validity data are adequate and well established. Our data with a middle-aged sample indicated a trend for recall and recognition memory effects on this procedure.\n(§2) Chromium picolinate: The chromium supplement is provided by Nutrition21, Purchase, N.Y., a major distributor of the chromium picolinate supplement form. A single capsule 1000 mcg dose is administered to subjects receiving the chromium treatment with the morning meal each day for the duration of the intervention. Similar appearing placebo capsules are administered in a similar manner to subjects receiving the placebo treatment."}, "[4]": {"experiment": "Placebo-controlled trial in Mild Cognitive Impairment: chromium to creatinine ratio", "format": "in vivo, men and women", "method": "as §1\n(§3) Chromium picolinate: The chromium supplement is provided by Nutrition21, Purchase, N.Y., a major distributor of the chromium picolinate supplement form. […]"}, "[5]": {"tested_on": "motor speed", "experiment": "Trail-Making task in trial subjects with Mild Cognitive Impairment", "format": "in vivo, men and women", "method": "as §1, §3"}, "[6]": {"tested_on": "cerebral activation", "experiment": "fMRI during working memory (visual-spatial n-back) task in trial subjects with Mild Cognitive Impairment", "format": "in vivo, men and women", "method": "as §1, §2\nA neuropsychological protocol is administered and fMRI scans are obtained before and after treatments using a Varian INOVA 4 Tesla scanner. Two runs of BOLD EPI, 30 contiguous 5 mm coronal slices are acquired. Images are obtained while subjects performed the NIH visual-spatial n-back task with 0- and 1-back blocks. There are 20, 1.5 s trials per block; each block repeated 6 times. Image analyses are performed using AFNI and included co-registration, motion correction, blur, normalization, and event-related analysis. […]"}, "[7]": {"tested_on": "HFD/STZ-treated rats", "experiment": "Rat model of type 2 diabetes (high-fat diet + streptozotocin): chromium, carbohydrate metabolism and serotonergic properties", "format": "in vivo, male Sprague-Dawley rats", "design": "Cortisol: unit not given here", "method": "An animal model of type 2 diabetes was produced by feeding male Sprague-Dawley rats (n=33) with a high-fat diet (HFD, 40% Kcal from fat) for 2 weeks, then intraperitoneally administering streptozotocin (STZ, 40 mg/kg). The HFD/STZ-treated rats were then administered 80 mcg chromium picolinate/kg body weight/day for 10 weeks. Chromium picolinate was obtained from Nutrition 21, Purchase, N.Y. Untreated Sprague-Dawley (standard control diet) and HFD/STZ-treated rats not administered chromium picolinate served as controls.\nChromium picolinate administration to HFD/STZ treated rats increased brain chromium levels and improved all measurements or carbohydrate metabolism and serotonergic properties."}, "[8]": {"conditions": "control rats (C), FIGS. 1A and 1C"}, "[9]": {"conditions": "Study 1: 1000 mcg elemental chromium daily, 12 weeks, v placebo, effect size moderate"}, "[10]": {"conditions": "as printed under Results - Study 2"}, "[11]": {"conditions": "80 mcg chromium picolinate/kg body weight/day for 10 weeks, mean ± SD"}, "[12]": {"conditions": "80 mcg/kg body weight/day for 10 weeks"}}, "note": "Like-named read-outs stand apart in the source and are kept apart here.", "data": [{"molecule": "[Cl][Cr]([Cl])[Cl]", "note": "[chromium chloride]", "values": [{"measurement": "Toxic effects", "setting": "[1]; rats, levels several thousand times the upper limit of the human ESADDI for chromium (based on body weight)", "value": "without toxic effects"}]}, {"molecule": "chromium histidinate", "values": [{"measurement": "Improvement of spatial learning and/or memory", "setting": "[2]", "value": "effective in improving spatial learning and/or memory"}, {"measurement": "Escape latency compared to controls", "setting": "[2]; [8]", "value": "significantly shorter escape latencies on day 3"}, {"measurement": "Escape latency compared to controls", "setting": "[2]; insulin-resistant rats (HFD), FIGS. 1B and 1D", "value": "significantly shorter escape latencies on days 3 and 5"}]}, {"molecule": "chromium picolinate", "values": [{"measurement": "Improvement of spatial learning and/or memory", "setting": "[2]", "value": "effective in improving spatial learning and/or memory"}, {"measurement": "Escape latency compared to controls", "setting": "[2]; [8]", "value": "significantly shorter escape latencies on day 3"}, {"measurement": "Toxic effects", "setting": "[1]; rat, in vivo", "value": "without toxic effects"}, {"measurement": "Accuracy of memory on the California Verbal Learning Test", "setting": "[3]; Study 1: 1000 mcg elemental chromium daily, 12 weeks, v placebo", "value": "No group differences"}, {"measurement": "Semantic interference (free recall intrusions)", "setting": "[3]; [9]", "value": "trend for reduced semantic interference"}, {"measurement": "Intrusion errors on the California Verbal Learning Test", "setting": "[3]; Study 2: administered outside the scanner, relative to the placebo group", "value": "reduced intrusion errors"}, {"measurement": "Accuracy of memory on the California Verbal Learning Test", "setting": "[3]; [10]", "value": "No group differences"}, {"measurement": "Semantic interference", "setting": "[3]; [10]", "value": "trend for reduced semantic interference"}, {"measurement": "Chromium to creatinine ratios at treatment termination", "setting": "[4]; Study 1: 1000 mcg elemental chromium daily for 12 weeks (n=11) v placebo (n=10), F=8.85, p=0.008", "value": "significantly elevated"}, {"measurement": "Chromium to creatinine ratios at treatment termination", "setting": "[4]; Study 2: 1000 mcg elemental chromium daily for 12 weeks (n=9) v placebo (n=4), F=8.86, p<0.0001", "value": "elevated"}, {"measurement": "Motor speed on the Trail-Making task", "setting": "[5]; [9]", "value": "trend for enhanced motor speed"}, {"measurement": "Motor speed", "setting": "[5]; as printed under Results - Study 2, sentence breaks off", "value": "trend for enhanced motor"}, {"measurement": "fMRI activation pattern, pre- v post-intervention scans", "setting": "[6]; Study 1: individual subjects, increasing working memory load", "value": "increasing activation in left frontal and left parietal cortices"}, {"measurement": "Performance on the working memory task", "setting": "[6]; Study 2: n-back task in the scanner, v placebo", "value": "not reflected in differential performance"}, {"measurement": "fMRI activation relative to placebo treated subjects", "setting": "[6]; Study 2: right thalamic, right temporal, right posterior parietal and bilateral frontal regions, p=0.005 corrected", "value": "greater activation"}, {"measurement": "CISI (insulin sensitivity)", "setting": "[7]; [11]", "value": "1.3 ± 0.04"}, {"measurement": "Chromium - Brain", "setting": "[7]; [11]", "value": "22.6 ± 1.2", "unit": "ng/g"}, {"measurement": "Cortisol", "setting": "[7]; [11]", "value": "11.5 ± 0.4"}, {"measurement": "Glucose", "setting": "[7]; [11]", "value": "287.0 ± 2.7", "unit": "mg/dL"}, {"measurement": "Insulin Brain", "setting": "[7]; [11]", "value": "8.9 ± 2.0", "unit": "ng/g"}, {"measurement": "Insulin Serum", "setting": "[7]; [11]", "value": "25.9 ± 0.5", "unit": "uU/mL"}, {"measurement": "Melatonin", "setting": "[7]; [11]", "value": "16.3 ± 0.2", "unit": "µg/g"}, {"measurement": "Serotonin Brain", "setting": "[7]; [11]", "value": "520.3 ± 4.1", "unit": "µg/g"}, {"measurement": "Serotonin Serum", "setting": "[7]; [11]", "value": "174.9 ± 2.5", "unit": "mg/dL"}, {"measurement": "Tryptophan Brain", "setting": "[7]; [11]", "value": "5.5 ± 0.2", "unit": "µg/g"}, {"measurement": "Tryptophan Serum", "setting": "[7]; [11]", "value": "16.1 ± 0.3", "unit": "mg/dL"}, {"measurement": "Insulin resistance compared to the HFD/STZ group", "setting": "[7]; [12]", "value": "reduced"}, {"measurement": "Tolerability / adverse events", "setting": "[7]; [12]", "value": "well tolerated without any adverse events"}]}]}
